The values that follow come from US20240150303A1, “DIAMINOTRIAZINE COMPOUNDS” (BASF SE, priority 2021, published 2024).

Common to all, as to assay: greenhouse pre-emergence herbicidal test
What all share (type): in vivo

In one test the test system is Echinocloa crus-galli. The source says:
(§1) The seeds of the test plants were sown separately for each species. For the pre-emergence treatment, the active ingredients, which had been suspended or emulsified in water, were applied directly after sowing by means of finely distributing nozzles. The containers were irrigated gently to promote germination and growth and subsequently covered with transparent plastic hoods until the plants had rooted. This cover caused uniform germination of the test plants, unless this had been impaired by the active ingredients. […] The test period extended over 2 to 4 weeks. During this time, the plants were tended, and their response to the individual treatments was evaluated. Evaluation was carried out using a scale from 0 to 100. 100 means no emergence of the plants, or complete destruction of at least the aerial moieties, and 0 means no damage, or normal course of growth. A moderate herbicidal activity is given at values of at least 60, a good herbicidal activity is given at values of at least 70, and a very good herbicidal activity is given at values of at least 85. The plants used in the greenhouse experiments were of the following species: [table]

A further test deals with Amaranthus retroflexus.
Source text: as §1

A further test has as its system Setaria faberi.
Source text: as §1

In the next test the test system is Abutilon theophrasti. From the text:
The culture containers used were plastic flowerpots containing loamy sand with approximately 3.0% of humus as the substrate. The seeds of the test plants were sown separately for each species.
For the pre-emergence treatment, the active ingredients, which had been suspended or emulsified in water, were applied directly after sowing by means of finely distributing nozzles.
The containers were irrigated gently to promote germination and growth and subsequently covered with transparent plastic hoods until the plants had rooted. This cover caused uniform germination of the test plants, unless this had been impaired by the active ingredients.
Depending on the species, the plants were kept at 10-25° C. or 20-35° C., respectively.
The test period extended over 2 to 4 weeks. During this time, the plants were tended, and their response to the individual treatments was evaluated.
Evaluation was carried out using a scale from 0 to 100. 100 means no emergence of the plants, or complete destruction of at least the aerial moieties, and 0 means no damage, or normal course of growth. A moderate herbicidal activity is given at values of at least 60, a good herbicidal activity is given at values of at least 70, and a very good herbicidal activity is given at values of at least 85.
The plants used in the greenhouse experiments were of the following species: […]

Turning to `CC(F)c1nc(N)nc(Nc2c(Cl)cccc2OC(F)F)n1` (racemic) [Example 95], the herbicidal activity in the test on Echinocloa crus-galli (62 g/ha), in the test on Amaranthus retroflexus (62 g/ha), in the test on Setaria faberi (62 g/ha) and with Abutilon theophrasti (62 g/ha) was 100% in each case.
Turning to `COc1c(Br)cc(Cl)c(C)c1Nc1nc(N)nc(C(C)(F)CBr)n1` (racemic) [Example 99], the herbicidal activity with Amaranthus retroflexus (62 g/ha), with Setaria faberi (62 g/ha) and in the test with Abutilon theophrasti (62 g/ha) was 100% in each case.
Consider `Cc1c(Br)cc(F)c(OCc2ccccc2)c1Nc1nc(N)nc(C(C)(C)F)n1` [Example 6], for which the herbicidal activity in the test with Echinocloa crus-galli (125 g/ha) turned out to be 100%; with Echinocloa crus-galli (250 g/ha), 85%; with Setaria faberi (125 g/ha) it was 100%; in the test on Setaria faberi (250 g/ha), 100%; with Abutilon theophrasti (125 g/ha) it was 100%; in the test on Abutilon theophrasti (250 g/ha) it was 100%.
`COc1c(F)cc(F)c(Cl)c1Nc1nc(N)nc(C(C)(C)F)n1` [Example 9]: the herbicidal activity in the test with Echinocloa crus-galli (32 g/ha) was determined as 100%; in the test with Amaranthus retroflexus (32 g/ha), 100%; in the test with Amaranthus retroflexus (250 g/ha), 100%; with Setaria faberi (250 g/ha), 95%; in the test on Abutilon theophrasti (32 g/ha), 100%; with Abutilon theophrasti (250 g/ha) it was 90%.
Turning to `COc1c(F)ccc(C)c1Nc1nc(N)nc(C(C)(C)F)n1` [Example 16], the herbicidal activity with Echinocloa crus-galli (62 g/ha), in the test on Echinocloa crus-galli (250 g/ha), in the test on Amaranthus retroflexus (62 g/ha), in the test with Amaranthus retroflexus (250 g/ha), in the test with Abutilon theophrasti (62 g/ha) and in the test with Abutilon theophrasti (250 g/ha) was 100% in each case.
Consider `COc1c(C)ccc(C)c1Nc1nc(N)nc(C(C)(C)OC)n1` [Example 17], for which the herbicidal activity with Echinocloa crus-galli (250 g/ha), in the test on Amaranthus retroflexus (250 g/ha) and with Abutilon theophrasti (250 g/ha) was 100% throughout.
In the case of `COc1c(C)ccc(C)c1Nc1nc(N)nc(C(C)F)n1` (stereo not shown) [Example 18], the herbicidal activity in the test on Echinocloa crus-galli (62.5 g/ha), in the test on Echinocloa crus-galli (250 g/ha), with Amaranthus retroflexus (62.5 g/ha), in the test with Amaranthus retroflexus (250 g/ha), with Abutilon theophrasti (62.5 g/ha) and in the test with Abutilon theophrasti (250 g/ha) was 100% throughout.
Take `COc1c(Br)cc(F)c(Cl)c1Nc1nc(N)nc(C(C)(C)F)n1` [Example 29]: the herbicidal activity in the test on Amaranthus retroflexus (31 g/ha), with Amaranthus retroflexus (62 g/ha), with Setaria faberi (31 g/ha), in the test with Setaria faberi (62 g/ha), in the test with Abutilon theophrasti (31 g/ha) and in the test with Abutilon theophrasti (62 g/ha) was 100% each time.
`COc1c(Cl)cc(Cl)c(C)c1Nc1nc(N)nc(C(C)(C)F)n1` [Example 34]: the herbicidal activity with Echinocloa crus-galli (62.5 g/ha), in the test with Amaranthus retroflexus (62.5 g/ha) and in the test with Abutilon theophrasti (62.5 g/ha) was 100% in each case.
In the case of `COc1c(Br)cc(Br)c(C)c1Nc1nc(N)nc(C(C)(C)F)n1` [Example 38], the herbicidal activity in the test on Echinocloa crus-galli (62.5 g/ha), in the test on Amaranthus retroflexus (62.5 g/ha), with Amaranthus retroflexus (250 g/ha), in the test on Setaria faberi (62.5 g/ha), in the test with Setaria faberi (250 g/ha) and in the test with Abutilon theophrasti (250 g/ha) was 100% in each case.
`COc1c(Br)cc(Cl)c(C)c1Nc1nc(N)nc(C(C)(C)F)n1` [Example 39]: the herbicidal activity with Echinocloa crus-galli (62.5 g/ha), with Amaranthus retroflexus (62 g/ha), with Amaranthus retroflexus (62.5 g/ha), in the test with Setaria faberi (62 g/ha), with Setaria faberi (62.5 g/ha) and with Abutilon theophrasti (62 g/ha) was 100% in each case.
Regarding `COc1c(Br)cc(F)c(Cl)c1Nc1nc(N)nc(C2(F)CCCC2)n1` [Example 40], the herbicidal activity with Echinocloa crus-galli (62 g/ha), with Echinocloa crus-galli (62.5 g/ha), in the test on Amaranthus retroflexus (62.5 g/ha), in the test with Setaria faberi (62 g/ha), in the test on Setaria faberi (62.5 g/ha) and with Abutilon theophrasti (62 g/ha) was 100% throughout.
For `COc1c(Br)cc(F)c(Cl)c1Nc1nc(N)nc(C(C)F)n1` (stereo not shown) [Example 41], the herbicidal activity in the test with Echinocloa crus-galli (62 g/ha), with Echinocloa crus-galli (62.5 g/ha), in the test with Amaranthus retroflexus (62.5 g/ha), in the test on Setaria faberi (62 g/ha), in the test with Setaria faberi (62.5 g/ha) and in the test with Abutilon theophrasti (62 g/ha) was 100% throughout.
With `COc1c(F)ccc(Cl)c1Nc1nc(N)nc(C(C)(C)F)n1` [Example 49], the herbicidal activity with Echinocloa crus-galli (62 g/ha), in the test with Echinocloa crus-galli (62.5 g/ha), with Amaranthus retroflexus (62 g/ha), with Amaranthus retroflexus (62.5 g/ha), in the test on Abutilon theophrasti (62 g/ha) and with Abutilon theophrasti (62.5 g/ha) was 100% in each case.
Regarding `C#CCOc1c(F)ccc(Cl)c1Nc1nc(N)nc(C(C)(C)F)n1` [Example 50], the herbicidal activity with Echinocloa crus-galli (62 g/ha) was found to be 100%; in the test with Amaranthus retroflexus (31 g/ha), 100%; with Amaranthus retroflexus (62 g/ha) it was 100%; in the test on Setaria faberi (31 g/ha) it was 100%; in the test on Abutilon theophrasti (31 g/ha), 80%; in the test with Abutilon theophrasti (62 g/ha), 100%.
As to `CC#CCOc1c(F)ccc(Cl)c1Nc1nc(N)nc(C(C)(C)F)n1` [Example 51], the herbicidal activity in the test with Echinocloa crus-galli (62 g/ha), in the test on Amaranthus retroflexus (62 g/ha), in the test with Setaria faberi (62 g/ha) and with Abutilon theophrasti (62 g/ha) was 100% throughout.
Turning to `COc1c(F)cc(C)c(Cl)c1Nc1nc(N)nc(C(C)(C)F)n1` [Example 55], the herbicidal activity in the test on Echinocloa crus-galli (62 g/ha), in the test with Echinocloa crus-galli (62.5 g/ha), with Amaranthus retroflexus (62.5 g/ha), in the test on Setaria faberi (62 g/ha), with Abutilon theophrasti (62 g/ha) and with Abutilon theophrasti (62.5 g/ha) was 100% each time.
As to `C#CCOc1c(F)cc(C)c(Cl)c1Nc1nc(N)nc(C(C)(C)F)n1` [Example 56], the herbicidal activity was 100% with Echinocloa crus-galli (62 g/ha); 90% in the test with Echinocloa crus-galli (62.5 g/ha); 100% in the test on Setaria faberi (62 g/ha); 100% in the test with Setaria faberi (62.5 g/ha); 100% with Abutilon theophrasti (62 g/ha); 90% in the test with Abutilon theophrasti (62.5 g/ha).
For the molecule `CC#CCOc1c(F)cc(C)c(Cl)c1Nc1nc(N)nc(C(C)(C)F)n1` [Example 57], the herbicidal activity is on record as 100% in the test on Echinocloa crus-galli (31 g/ha); 100% with Echinocloa crus-galli (62 g/ha); 100% with Amaranthus retroflexus (62 g/ha); 100% with Setaria faberi (31 g/ha); 100% with Setaria faberi (62 g/ha); 98% in the test with Abutilon theophrasti (31 g/ha).
As to `COc1c(F)cc(Br)c(Cl)c1Nc1nc(N)nc(C(C)(C)F)n1` [Example 58], the herbicidal activity in the test on Echinocloa crus-galli (62 g/ha), in the test with Echinocloa crus-galli (62.5 g/ha), with Amaranthus retroflexus (62 g/ha), in the test on Setaria faberi (62 g/ha), in the test with Setaria faberi (62.5 g/ha) and in the test on Abutilon theophrasti (62.5 g/ha) was 100% each time.
As for `COc1c(Br)ccc(C)c1Nc1nc(N)nc(C(C)(C)F)n1` [Example 62], the herbicidal activity in the test with Echinocloa crus-galli (31 g/ha), with Echinocloa crus-galli (62 g/ha), with Amaranthus retroflexus (31 g/ha), with Amaranthus retroflexus (62 g/ha), in the test with Setaria faberi (31 g/ha) and in the test on Abutilon theophrasti (62 g/ha) was 100% each time.
Consider `CC#CCOc1c(Cl)cc(C)c(Cl)c1Nc1nc(N)nc(C(C)(C)F)n1` [Example 65], for which the herbicidal activity in the test on Echinocloa crus-galli (62 g/ha), in the test with Setaria faberi (62 g/ha) and with Abutilon theophrasti (62 g/ha) was 100% throughout.
On to `COc1c(Cl)cc(F)c(C)c1Nc1nc(N)nc(C(C)(F)CBr)n1` (stereo not shown) [Example 66], for which the herbicidal activity in the test on Echinocloa crus-galli (62 g/ha), in the test with Amaranthus retroflexus (62 g/ha), in the test with Setaria faberi (62 g/ha) and in the test on Abutilon theophrasti (62 g/ha) was 100% in each case.
As for `COc1c(Cl)cc(F)c(C)c1Nc1nc(N)nc(C(C)(F)F)n1` [Example 67], the herbicidal activity in the test with Echinocloa crus-galli (62 g/ha), with Amaranthus retroflexus (62 g/ha), in the test on Setaria faberi (62 g/ha) and in the test with Abutilon theophrasti (62 g/ha) was 100% throughout.
`CCC(C)(F)c1nc(N)nc(Nc2c(C)c(F)cc(Br)c2OC)n1` (stereo not shown) [Example 79]: the herbicidal activity in the test with Amaranthus retroflexus (62 g/ha), in the test with Setaria faberi (62 g/ha) and in the test on Abutilon theophrasti (62 g/ha) was 100% throughout.
As for `CCC(C)(F)c1nc(N)nc(Nc2c(C)c(F)cc(Cl)c2OC)n1` (stereo not shown) [Example 81], the herbicidal activity in the test on Echinocloa crus-galli (62 g/ha), with Setaria faberi (62 g/ha) and in the test with Abutilon theophrasti (62 g/ha) was 100% in each case.
On to `COc1c(F)ccc(Cl)c1Nc1nc(N)nc(C(C)(F)F)n1` [Example 85], for which the herbicidal activity worked out at 100% in the test on Echinocloa crus-galli (62 g/ha), 98% in the test with Setaria faberi (62 g/ha) and 85% with Abutilon theophrasti (62 g/ha).
